Assay results from patent US12187705B2, “Heteroaryl-triazole and heteroaryl-tetrazole compounds as pesticides” (Bayer Aktiengesellschaft, priority 2018, dated 2025).

How the values were obtained:
Type in all cases: in vivo
Diabrotica balteata = Diabrotica balteata spray test; settings: Diabrotica balteata, 168 h; 160 μg/well, wheat seeds, after 7 days; read-out: efficacy (seedlings grown)
Protocol: Diabrotica balteata—Spray Test
(§1) To produce a suitable preparation of active compound, 1 part by weight of active compound is mixed with the stated amount of solvent, and the concentrate is diluted with water, containing an emulsifier concentration of 1000 ppm, to the desired concentration. Further test concentrations are prepared by dilution with emulsifier containing water.
Soaked wheat seeds (Triticum aestivum) are placed in a multiple well plate filled with agar and some water and are incubated for 1 day to germinate (5 seeds per well). The germinated wheat seeds are sprayed with a test solution containing the desired concentration of the active ingredient. Afterwards each unit is infected with 10-20 larvae of the banded cucumber beetle (Diabrotica balteata).
After 7 days efficacy in % is determined. 100% means all the seedlings have grown up like in the untreated, uninfected control; 0% means none of the seedlings have grown.

Myzus persicae [1] = assay: Myzus persicae oral test; settings: 120 h
Protocol: To produce a suitable preparation of active compound, 1 part by weight of active compound is mixed with the stated amount of solvent, and the concentrate is diluted with water to the desired concentration.
50 μl compound solution is filled in microtiter plates and 150 μl IPL41 insect medium (33%+15% sugar) is added to obtain a total volume of 200 μl per well. Afterwards the plates are sealed with parafilm through which a mixed population of the green peach aphid (Myzus persicae) can suck on the compound preparation.
(§2) After 5 days mortality in % is determined. 100% means all aphids have been killed and 0% means none of the aphids have been killed.

Nezara viridula = Nezara viridula spray test; settings: in Hordeum vulgare, 96 h
Protocol: Nezara viridula—Spray Test
as §1
Barley plants (Hordeum vulgare) infested with larvae of the southern green stink bug (Nezara viridula) are sprayed with a test solution containing the desired concentration of the active ingredient.
After 4 days mortality in % is determined. 100% means all the stink bugs have been killed; 0% means none of the stink bugs have been killed.

Nilaparvata lugens = Nilaparvata lugens spray test; settings: Nilaparvata lugens, in Oryza sativa, 96 h
Protocol: Nilaparvata lugens—Spray Test
as §1, with “solvents” for “solvent,”, “and” for “and the concentrate”
Rice plants (Oryza sativa) are sprayed with a preparation of the active ingredient of the desired concentration and the plants are infested with the brown planthopper (Nilaparvata lugens).
After 4 days mortality in % is determined. 100% means all planthoppers have been killed and 0% means none of the planthoppers have been killed.

Spodoptera frugiperda = Spodoptera frugiperda spray test; settings: in Zea mays, 168 h
Protocol: Spodoptera frugiperda—Spray Test
as §1, with “solvents” for “solvent,”, “and” for “and the concentrate”
Maize (Zea mays) leaf sections are sprayed with a preparation of the active ingredient of the desired concentration. Once dry, the leaf sections are infested with fall armyworm larvae (Spodoptera frugiperda).
After 7 days mortality in % is determined. 100% means all caterpillars have been killed and 0% means none of the caterpillars have been killed.

Ctenocephalides felis [2] = assay: Ctenocephalides felis in-vitro contact test adult cat flea; settings: Ctenocephalides felis; 5 μg/cm^2 (=500 g/ha), after 48 hours; read-out: efficacy (fleas dead or moribund)
Protocol: Ctenocephalides felis—In-Vitro Contact Test Adult Cat Flea
9 mg compound is solved in 1 ml acetone and diluted with acetone to the desired concentration. 250 μl of the test solution is filled in 25 ml glass test tubes and homogeneously distributed on the inner walls by rotation and tilting on a shaking device (2 h at 30 rpm). With a compound concentration of 900 ppm, an inner surface of 44.7 cm^2 and a homogeneous distribution, a dose of 5 μg/cm^2 is achieved.
After the solvent has evaporated, each test tube is filled with 5-10 adult cat fleas (Ctenocephalides felis), closed with a perforated lid and incubated in a lying position at room temperature and relative humidity. After 48 hours efficacy is determined. The fleas are patted on the ground of the tubes and are incubated on a heating plate at 45-50° C. for at most 5 minutes. Immotile or uncoordinated moving fleas, which are not able to escape the heat by climbing upwards, are marked as dead or moribund.
An efficacy of 100% means all fleas are dead or moribund; 0% means no fleas are dead or moribund.

Boophilus microplus = Boophilus microplus injection test; settings: Rhipicephalus microplus, 168 h, 20 μg/animal, egg deposition after 7 days, read-out: efficacy (infertile eggs)
Protocol: Boophilus microplus—Injection Test
(§3) Solvent: dimethyl sulfoxide
To produce a suitable preparation of active compound, 10 mg of active compound are dissolved in 0.5 ml solvent, and the concentrate is diluted with solvent to the desired concentration.
Five adult engorged female ticks (Boophilus microplus) are injected with 1 μl compound solution into the abdomen. The ticks are transferred into replica plates and incubated in a climate chamber.
After 7 days egg deposition of fertile eggs is monitored. Eggs where fertility is not visible are stored in a climate chamber till hatching after about 42 days. An efficacy of 100% means all eggs are infertile; 0% means all eggs are fertile.

Ctenocephalides felis [3] = assay: Ctenocephalides felis oral test; settings: Ctenocephalides felis, in Bos taurus, po, 48 h
Protocol: Ctenocephalides felis—Oral Test
as §3
To produce a suitable preparation of active compound, 10 mg of active compound are dissolved in 0.5 ml solvent, and the concentrate is diluted with cattle blood to the desired concentration.
Approximately 20 adult unfed cat fleas (Ctenocephalides felis) are placed in flea chambers. The blood chamber, sealed with parafilm on the bottom, are filled with cattle blood supplied with compound solution and placed on the gauze covered top of the flea chamber, so that the fleas are able to suck the blood. The blood chamber is heated to 37° C. whereas the flea chamber is kept at room temperature.
After 2 days mortality in % is determined. 100% means all the fleas have been killed; 0% means none of the fleas have been killed.

Myzus persicae [4] = assay: Myzus persicae spray test; settings: in Brassica rapa, foliar, 120 h
Protocol: Myzus persicae—Spray Test
as §1, with “solvents” for “solvent,”, “and” for “and the concentrate”
Chinese cabbage (Brassica pekinensis) leaf disks infected with all instars of the green peach aphid (Myzus persicae), are sprayed with a preparation of the active ingredient of the desired concentration.
as §2

[5] = system: Aedes aegypti strain MONHEIM; assay: Aedes aegypti test (AEDSAE surface treatment & contact assay); settings: 24 hours after contact, read-out: efficacy (mortality); for mortality at 4 mg/m2: surface concentration 4 mg/m^2, 30 minutes exposure; for mortality at 20 mg/m2: surface concentration 20 mg/m^2, 30 minutes exposure
Protocol: Aedes aegypti Test (AEDSAE Surface Treatment & Contact Assay)
(§4) Solvent: Aceton+2000 ppm rapeseed oil methyl ester (RME)
(§5) In order to produce a sufficient, active ingredient containing solution it is necessary to solve the test-compound in the solvent-mix (Acetone at 2 mg/ml/RME 2000 ppm). This solution is pipetted onto a glazed tile and after evaporation of the Acetone, adult mosquitoes of the species Aedes aegypti strain MONHEIM are placed onto the dried surface. The exposure time is 30 minutes.
(§6) Mortality in percent (%) is determined 24 hours after contact to the treated surface. 100% mortality means that all test-insects are dead, whereas 0% means that not a single insect died.

[6] = system: Culex quinquefasciatus strain P00; assay: Culex quinquefasciatus test (CULXFA surface treatment & contact assay); settings: 24 hours after contact, read-out: efficacy (mortality); for mortality at 4 mg/m2: surface concentration 4 mg/m^2, 30 minutes exposure; for mortality at 20 mg/m2: surface concentration 20 mg/m^2, 30 minutes exposure
Protocol: Culex quinquefasciatus Test (CULXFA Surface Treatment & Contact Assay)
as §4
as §5, with “Culex quinquefasciatus” for “Aedes aegypti”, “P00” for “MONHEIM”
as §6

[7] = system: Anopheles funestus strain FUMOZ-R; assay: Anopheles funestus test (ANPHFU surface treatment & contact assay); settings: 24 hours after contact, read-out: efficacy (mortality); for mortality at 4 mg/m2: surface concentration 4 mg/m^2, 30 minutes exposure; for mortality at 20 mg/m2: surface concentration 20 mg/m^2, 30 minutes exposure
Protocol: Anopheles funestus Test (ANPHFU Surface Treatment & Contact Assay)
as §4
as §5, with “Anopheles funestus” for “Aedes aegypti”, “FUMOZ-R (Hunt et al., Med Vet Entomol. 2005 September; 19(3):271-5)” for “MONHEIM”
as §6

Row | Compound | pest or weed control at 160 µg/disc, 160 µg/well (Diabrotica balteata) [%] | mortality at 4 ppm (Myzus persicae [1]) [%] | mortality at 500 g/ha (Nezara viridula) [%] | mortality at 500 g/ha (Nilaparvata lugens) [%] | mortality at 500 g/ha (Spodoptera frugiperda) [%] | pest or weed control at 5 µg/cm2, 5 µg/cm2 (Ctenocephalides felis [2]) [%] | pest or weed control at 0.02 mg (Boophilus microplus) [%] | mortality at 100 ppm (Ctenocephalides felis [3]) [%] | mortality at 500 g/ha (Myzus persicae [4]) [%] | mortality at 4 mg/m2 [5] [%] | mortality at 20 mg/m2 [5] [%] | mortality at 4 mg/m2 [6] [%] | mortality at 20 mg/m2 [6] [%] | mortality at 4 mg/m2 [7] [%] | mortality at 20 mg/m2 [7] [%]
1 | C[C@H](NC(=O)c1cc(Cl)cc(S(=O)(=O)C(F)(F)F)c1)c1ncnn1-c1ncccn1 [Example I-033, 3-chloro-N-{(1S)-1-[1-(pyrimidin-2-yl)-1H-1,2,4-triazol-5-yl]ethyl}-5-[(trifluoromethyl)sulfonyl]benzamide] | 100 | 100 | 100 | 100 | 100 | – | – | – | – | – | – | – | – | – | –
2 | CC(c1ncnn1-c1ncccn1)N(CCC(F)(F)F)C(=O)c1cc(Cl)cc(S(C)(=O)=O)c1 (stereo not drawn) [Example I-039] | 100 | 100 | 100 | 100 | – | 100 | 100 | 100 | 100 | – | – | – | – | – | –
3 | CC(c1ncnn1-c1ncccn1)N(CC(F)F)C(=O)c1cc(Cl)cc(S(C)(=O)=O)c1 (stereo not drawn) [Example I-041] | 100 | 100 | 100 | 100 | – | 90 | 100 | 100 | – | 80 to 100 | 90 to 100 | 80 to 100 | 80 to 100 | 85 to 100 | 85 to 100
4 | CC(NC(=O)c1cc(Cl)cc(-n2cncn2)c1)c1ncnn1-c1ncccn1 (stereo not drawn) [Example I-049] | 100 | – | 100 | 100 | – | – | 100 | 100 | – | 80 to 100 | 90 to 100 | – | 80 to 100 | 85 to 100 | 85 to 100
5 | CON=C(C)c1cc(Cl)cc(C(=O)N[C@@H](C)c2ncnn2-c2ncccn2)c1 [Example I-057, 3-chloro-5-(N-methoxyethanimidoyl)-N-{(1S)-1-[1-(pyrimidin-2-yl)-1H-1,2,4-triazol-5-yl]ethyl}benzamide] | 80 | 100 | 100 | – | 100 | 100 | – | 100 | 90 | 80 to 100 | 90 to 100 | – | 80 to 100 | – | –
6 | C[C@H](NC(=O)c1cc(Cl)cc(S(=O)(=O)CC(F)(F)F)c1)c1ncnn1-c1ncccn1 [Example I-093, 3-chloro-N-{(1S)-1-[1-(pyrimidin-2-yl)-1H-1,2,4-triazol-5-yl]ethyl}-5-[(2,2,2-trifluoroethyl)sulfonyl]benzamide] | 100 | 90 | 100 | – | – | – | – | – | – | 80 to 100 | 90 to 100 | 80 to 100 | 80 to 100 | 85 to 100 | –
